Test results: US20150250782A1, “Methods and Compositions for Hypotensive Resuscitation” (Pharmazz, Inc., priority 2012, published 2015)

Assays:
[1] = test system: hemorrhaged rats; experiment: Norepinephrine required to maintain MAP at 70 mmHg in hemorrhaged rats; assay type: in vivo, rat; conditions: 0.05 mg/kg
Experimental: In another study, the effect of centhaquin resuscitation on the amount of norepinephrine (NE) required to maintain mean arterial pressure (MAP) and the time by which MAP falls back to 35 mmHg in hemorrhaged rats was determined. Male, adult rats were anesthetized with urethane and a pressure catheter SPR-320 was placed in the femoral artery, and a pressure-volume catheter SPR-869 was placed in the left ventricle. Hemorrhage was induced by withdrawing blood and MAP was maintained at 35 mmHg for 30 minutes followed by resuscitation.
Two sets of experiments were performed. First, the amount of NE required to maintain MAP at 70 mmHg in normal saline (NS) or centhaquin (0.05 mg/kg) treated rats (volume equal to blood loss) was determined. Second, the time by which MAP fell back to 35 mmHg in rats treated with 3% hypertonic saline (HS) or centhaquin (0.05 mg/kg) (volume one-fifth of blood loss) was determined. […] In a second set of experiments, hemorrhaged rats were resuscitated with either HS or centhaquin (one-fifth the volume of blood loss).

[2] = test system: hemorrhaged rats; experiment: Initial experiments in hemorrhaged rats with 0.45 mg/kg centhaquin; assay type: in vivo, rat
Experimental: Initial experiments in hemorrhaged rats were performed with a 0.45 mg/kg dose of centhaquin. […] Centhaquin (0.45 mg/kg) produced a decrease in HR (beats/min) from 368±12 at hemorrhage, to 306±6, 309±6 and 274±11 at 30, 60 and 120 min, respectively, following resuscitation; cardiac output (mL) increased from 32±6 at hemorrhage, to 77±3, 74±4 and 62±5 at 30, 60 and 120 min, respectively, following resuscitation; while systemic vascular resistance (dynes*sec/cm5) was 84±4 at hemorrhage, and fell to 39±9, 42±9 and 45±6 at 30, 60 and 120 min, respectively, following resuscitation.

[3] = test system: hemorrhaged rats; experiment: Fixed-pressure hemorrhage model, centhaquin in hypertonic saline; assay type: in vivo, rat
Experimental: A sham group of rats was cannulated, but not hemorrhaged. A vehicle group received hypertonic saline. Treatment groups received centhaquin (free base) (0.006, 0.017, or 0.05 mg/kg) in hypertonic saline. The values are expressed as mean±S.E.M. with n=6 rats in each group.
FIGS. 9-12 show the effect of centhaquin on blood lactate and base deficit in hemorrhaged rats (FIG. 9); on mean arterial pressure and heart rate (FIG. 10); on cardiac output and stroke volume (FIG. 11); and on systemic vascular resistance and stroke work (FIG. 12). Like the tests of FIG. 8, a sham group of rats was cannulated but not hemorrhaged, a vehicle group received hypertonic saline, and treatment groups received free base centhaquin (0.006, 0.017, or 0.05 mg/kg) in hypertonic saline. The values are expressed as mean±S.E.M. with n=6 rats in each group. *p<0.05 compared to baseline, #p<0.05 compared to hemorrhage, Δp<0.05 compared to vehicle treated group.
FIG. 13 is a plot of fraction survival vs. time for groups of hemorrhaged rats. The sham group of rats was cannulated, but not hemorrhaged. The vehicle group received hypertonic saline, while treatment groups received centhaquin (free base) (0.006, 0.017, or 0.05 mg/kg) in hypertonic saline.
Centhaquin increased the survival time of hemorrhaged rats compared to hypertonic saline treatment. Median survival time for 50% survival rate of rats treated with hypertonic saline was 137±12 minutes, while for rats treated with centhaquin it was 375±25 minutes. Fraction survival at 250 min was 0 when resuscitated with hypertonic saline, while treatment with centhaquin improved the fraction survival to 0.8. Even at 480 min after resuscitation with centhaquin, the fraction survival was 0.2. […] The findings of the present study are novel, unexpected, and are important due to recent reports of large clinical studies showing hypertonic saline has no benefit over normal saline in patients with hypovolemic shock or severe traumatic brain injury (Bulger, May et al. 2010; Bulger, May et al. 2011).

[4] = test system: α2 adrenergic receptors; experiment: Centhaquin resuscitation with and without α2 adrenergic antagonists: arterial blood hematocrit, pH, gases, electrolytes, lactate; assay type: in vivo, rat; set-up: pCO2 / pO2 / Na+ / K+ / Ca++ / Lactate: unit not given beside the values
[5] = test system: endothelin A (ETA) receptors; experiment: Expression of ETA receptors in blood vessels after intravenous administration; assay type: in vivo, rat; conditions: intravenous administration in rats
[6] = test system: isolated perfused rabbit heart; conditions: Bhatnagar, Pande et al. 1985; cited from earlier work
[7] = test system: dog femoral artery; conditions: 10 and 20 μg locally into femoral artery; Srimal, Mason et al. 1990; cited from earlier work
[8] = test system: release of norepinephrine; conditions: 0.1, 1.0 and 10.0 μg/ml; Bhatnagar, Pande et al. 1985; cited from earlier work
[9] = 120 min following resuscitation

SMILES: Cc1cccc(N2CCN(CCc3ccc4ccccc4n3)CC2)c1 [centhaquin, 2-[2-(4-(3-methyphenyl)-1-piperazinyl)ethyl]-quinoline]
- Blood lactate ([1]; 60 min following resuscitation, volume equal to blood loss): 1.65 ± 0.23 mmol/L
- amount of NE needed in each rat to maintain MAP at 70 mmHg ([1]; first 60 min of resuscitation): 17.5 µg
- HR ([2]; 30 min following resuscitation): 306±6 beats/min
- MAP ([2]; 30 min following resuscitation): 38±4 mmHg
- cardiac output ([2]; 30 min following resuscitation): 77 ± 3 mL
- systemic vascular resistance ([2]; 30 min following resuscitation): 39±9 dynes*sec/cm5
- HR ([2]; 60 min following resuscitation): 309±6 beats/min
- MAP ([2]; 60 min following resuscitation): 39±4 mmHg
- cardiac output ([2]; 60 min following resuscitation): 74 ± 4 mL
- systemic vascular resistance ([2]; 60 min following resuscitation): 42±9 dynes*sec/cm5
- HR [2, 9]: 274±11 beats/min
- MAP [2, 9]: 35±4 mmHg
- cardiac output [2, 9]: 62 ± 5 mL
- systemic vascular resistance [2, 9]: 45±6 dynes*sec/cm5
- HR ([2]; at hemorrhage): 368±12 beats/min
- cardiac output ([2]; at hemorrhage): 32 ± 6 mL
- systemic vascular resistance ([2]; at hemorrhage): 84±4 dynes*sec/cm5
- survival time compared to other groups ([3]; 0.017 mg/kg): maximal survival time
- Fraction survival ([3]; at 250 min): 0.8
- Fraction survival ([3]; at 480 min after resuscitation): 0.2
- Median survival time for 50% survival rate ([3]; centhaquin in hypertonic saline): 375 ± 25 min
- Ca++ ([4]; Baseline): 1.15 ± 0.02
- Hematocrit ([4]; Baseline): 54.67 ± 2.03
- K+ ([4]; Baseline): 2.73 ± 1.07
- Lactate ([4]; Baseline): 3.17 ± 0.24
- Na+ ([4]; Baseline): 134.33 ± 0.88
- pCO2 ([4]; Baseline): 46.33 ± 1.67
- pH ([4]; Baseline): 7.34 ± 0.01
- pO2 ([4]; Baseline): 118.33 ± 6.77
- Ca++ ([4]; Hemorrhage): 1.22 ± 0.00
- Hematocrit ([4]; Hemorrhage): 37.67 ± 2.33
- K+ ([4]; Hemorrhage): 5.73 ± 0.30
- Lactate ([4]; Hemorrhage): 10.10 ± 0.70
- Na+ ([4]; Hemorrhage): 124.33 ± 1.86
- pCO2 ([4]; Hemorrhage): 27.33 ± 1.20
- pH ([4]; Hemorrhage): 7.24 ± 0.02
- pO2 ([4]; Hemorrhage): 124.00 ± 4.73
- Ca++ ([4]; Resuscitation 30 min): 1.17 ± 0.02
- Hematocrit ([4]; Resuscitation 30 min): 33.00 ± 1.53
- K+ ([4]; Resuscitation 30 min): 4.73 ± 0.09
- Lactate ([4]; Resuscitation 30 min): 5.80 ± 0.32
- Na+ ([4]; Resuscitation 30 min): 130.00 ± 0.08
- pCO2 ([4]; Resuscitation 30 min): 33.00 ± 0.58
- pH ([4]; Resuscitation 30 min): 7.29 ± 0.01
- pO2 ([4]; Resuscitation 30 min): 124.00 ± 4.51
- Ca++ ([4]; Resuscitation 60 min): 1.18 ± 0.03
- Hematocrit ([4]; Resuscitation 60 min): 32.67 ± 1.76
- K+ ([4]; Resuscitation 60 min): 4.60 ± 0.00
- Lactate ([4]; Resuscitation 60 min): 4.53 ± 0.38
- Na+ ([4]; Resuscitation 60 min): 128.00 ± 1.00
- pCO2 ([4]; Resuscitation 60 min): 33.33 ± 0.33
- pH ([4]; Resuscitation 60 min): 7.31 ± 0.01
- pO2 ([4]; Resuscitation 60 min): 121.67 ± 4.63
- Ca++ ([4]; Resuscitation 120 min): 1.18 ± 0.01
- Hematocrit ([4]; Resuscitation 120 min): 33.67 ± 2.03
- K+ ([4]; Resuscitation 120 min): 5.17 ± 0.15
- Lactate ([4]; Resuscitation 120 min): 5.67 ± 0.22
- Na+ ([4]; Resuscitation 120 min): 130.33 ± 0.33
- pCO2 ([4]; Resuscitation 120 min): 29.00 ± 1.15
- pH ([4]; Resuscitation 120 min): 7.28 ± 0.01
- pO2 ([4]; Resuscitation 120 min): 132.00 ± 6.69
- expression of endothelin A (ETA) receptors in the blood vessels [5]: increase the expression
- inotropic effect, ventricular contractions [6]: positive inotropic effect
- blood flow [7]: increased blood flow
- norepinephrine release evoked by potassium chloride and dimethyl phenyl piperazinium chloride [8]: inhibited
- spontaneous release of norepinephrine [8]: initial increase, followed by a decrease
